# Assay results as given in patent US20260062394A1, “PROCESSES FOR PREPARING OXAZOLIDINONE COMPOUNDS” (Merck Sharp & Dohme LLC, priority 2022, published 2026).
# Test: relative stability and turnover of the crystalline forms
# Format: physicochemical
# Details: for thermodynamic stability of the crystalline form: solid form, Form II statement applies to the 5-70° C. range
# From the text: Alternatively, Form I can also be produced by solvent/anti solvent crystallizations where the solvent is (but limited not) DMSO or acetone and the antisolvent is (but not limited to) water, hexanes or heptanes. Form I can also be produced by slow evaporation of clear solutions of crude Example 1 in volatile solvents where the volatile solvent is (but not limited to) dichloromethane, acetone, or acetonitrile. Form I was characterized using PXRD, DSC, TGA and SCXRD.
# Form II can be produced by recrystallization of Form I in a variety of organic solvents or mixtures thereof where the solvent(s) is (are) (but not limited to) ethyl acetate, isopropanol, acetone, dichloromethane, acetonitrile, tetrahydrofuran, water, ethanol, 2-methyl tetrahydrofuran, toluene, methanol, dimethyl formamide or cyclopentyl methyl ether. Form II was characterized using PXRD, DSC and TGA.
# Type C can be produced by recrystallization of either Form I, Form II or Form III in solvent/antisolvent systems where the solvent is (but not limited to) acetone or dichloromethane and the antisolvent is (but not limited to) n-hexane or n-heptane.
# Form III was produced by recrystallization of Type C in the solid state at 150° C. and under a N2 flow. Form III can also be formed in some instances from solution in acetone/n-heptane crystallizations. […] Form III was characterized using PXRD, DSC, TGA and SCXRD.
lifetime in solution before turnover into a more thermodynamically stable phase (in solution),SMILES,thermodynamic stability of the crystalline form
,"COC(=O)NC[C@H]1CN(c2cc(F)c(N3CCS(=O)(=O)CC3)c(F)c2)C(=O)O1 [Form I, methyl({(5S)-3-[4-(1,1-dioxo-1λ^6-thiomorpholin-4-yl)-3,5-difluorophenyl]-2-oxo-1,3-oxazolidin-5-yl}methyl)carbamate]",kinetic phase and will recrystallize into Form II with time
,"COC(=O)NC[C@H]1CN(c2cc(F)c(N3CCS(=O)(=O)CC3)c(F)c2)C(=O)O1 [Form II, methyl ({(5S)-3-[4-(1,1-dioxo-1λ^6-thiomorpholin-4-yl)-3,5-difluorophenyl]-2-oxo-1,3-oxazolidin-5-yl}methyl)carbamate]",most thermodynamically stable form in the 5-70 °C range
,"COC(=O)NC[C@H]1CN(c2cc(F)c(N3CCS(=O)(=O)CC3)c(F)c2)C(=O)O1 [Form III, methyl ({(5S)-3-[4-(1,1-dioxo-1λ^6-thiomorpholin-4-yl)-3,5-difluorophenyl]-2-oxo-1,3-oxazolidin-5-yl}methyl)carbamate]",Quick turnovers to more thermodynamically stable phases Form I or Form II are readily observed within minutes to hours
a few hours,"COC(=O)NC[C@H]1CN(c2cc(F)c(N3CCS(=O)(=O)CC3)c(F)c2)C(=O)O1 [Type C, methyl ({(5S)-3-[4-(1,1-dioxo-1λ^6-thiomorpholin-4-yl)-3,5-difluorophenyl]-2-oxo-1,3-oxazolidin-5-yl}methyl)carbamate]",highly metastable
